# According to patent US20060229299A1, “5ht2c Receptor antagonists in the treatment of schizophrenia” (priority 2003, published 2006):
# Legend:
# 5-HT2C receptor = molecular target: T1, 5-HT2C receptor (Sus scrofa, UniProt K7GSR7); conditions: pig; cited from earlier work
# T1 sequence (K7GSR7 1-457): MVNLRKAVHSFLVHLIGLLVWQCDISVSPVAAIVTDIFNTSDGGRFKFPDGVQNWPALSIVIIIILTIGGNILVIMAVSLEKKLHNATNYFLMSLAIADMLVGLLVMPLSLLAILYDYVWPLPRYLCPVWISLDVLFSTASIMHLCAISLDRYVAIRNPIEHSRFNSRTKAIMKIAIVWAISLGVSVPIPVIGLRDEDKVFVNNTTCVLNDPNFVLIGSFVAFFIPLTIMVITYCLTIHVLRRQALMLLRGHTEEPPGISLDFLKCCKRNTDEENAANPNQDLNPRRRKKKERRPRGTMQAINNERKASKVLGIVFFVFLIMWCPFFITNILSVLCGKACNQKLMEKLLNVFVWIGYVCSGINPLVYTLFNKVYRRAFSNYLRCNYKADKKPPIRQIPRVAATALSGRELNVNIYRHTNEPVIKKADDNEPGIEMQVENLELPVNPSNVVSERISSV
# 5-HT3 receptor = molecular target: T2, 5-HT3 receptor (Mus musculus, UniProt P23979); conditions: cited from earlier work
# T2 sequence (P23979 24-489): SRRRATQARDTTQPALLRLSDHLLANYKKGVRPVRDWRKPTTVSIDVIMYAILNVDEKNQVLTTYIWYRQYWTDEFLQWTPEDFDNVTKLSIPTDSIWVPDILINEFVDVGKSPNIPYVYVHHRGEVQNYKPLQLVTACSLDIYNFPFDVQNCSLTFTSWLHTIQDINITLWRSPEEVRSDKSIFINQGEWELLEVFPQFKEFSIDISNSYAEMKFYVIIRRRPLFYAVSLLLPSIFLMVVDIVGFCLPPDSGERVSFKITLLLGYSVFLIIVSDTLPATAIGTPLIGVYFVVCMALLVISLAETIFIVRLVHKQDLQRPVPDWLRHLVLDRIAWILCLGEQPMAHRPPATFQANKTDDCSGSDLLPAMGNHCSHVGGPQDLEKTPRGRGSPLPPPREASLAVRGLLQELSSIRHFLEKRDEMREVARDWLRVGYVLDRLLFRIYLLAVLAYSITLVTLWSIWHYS
# 5-HT7 receptor [1] = molecular target: 5-HT7 receptor (Mus musculus, UniProt P32304); conditions: cited from earlier work
# [2] = molecular target: D2-S (short form of D2 receptor) (Homo sapiens, UniProt P14416); conditions: cited from earlier work
# [3] = molecular target: D2-L (long form of D2 receptor) (Homo sapiens, UniProt P14416); conditions: cited from earlier work
# D4 dopamine receptor [4] = molecular target: T3, D4 dopamine receptor (Homo sapiens, UniProt P21917); conditions: human; cited from earlier work
# T3 sequence (P21917 1-419): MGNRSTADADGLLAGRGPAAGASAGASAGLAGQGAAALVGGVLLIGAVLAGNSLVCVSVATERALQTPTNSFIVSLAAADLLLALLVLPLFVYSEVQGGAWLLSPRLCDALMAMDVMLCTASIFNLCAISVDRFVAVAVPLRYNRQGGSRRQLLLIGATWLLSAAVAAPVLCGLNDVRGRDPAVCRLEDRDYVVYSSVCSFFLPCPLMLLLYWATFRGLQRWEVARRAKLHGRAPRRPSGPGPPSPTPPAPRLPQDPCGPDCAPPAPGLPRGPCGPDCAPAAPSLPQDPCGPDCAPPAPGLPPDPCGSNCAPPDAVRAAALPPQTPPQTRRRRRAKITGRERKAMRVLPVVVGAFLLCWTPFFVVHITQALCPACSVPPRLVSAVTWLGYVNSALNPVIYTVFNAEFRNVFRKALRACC
# [5] = molecular target: mACh, muscarinic acetylcholine receptor; conditions: rat; cited from earlier work
# α1-adrenoceptor [6] = conditions: species for α1 not given; cited from earlier work
# α2-adrenoceptor [7] = conditions: species for α2 not stated; cited from earlier work
# sigma, σ receptor = conditions: guinea-pig; cited from earlier work
# H1 histamine receptor = H1 histamine receptor (Cavia porcellus, UniProt P31389); conditions: guinea-pig; cited from earlier work
# [8] = tested on: 5-HT2C receptor relative to 5-HT2A and D2 receptors; test: Relative 5-HT2C affinity (formula I, sum of 5-HT2C/5-HT2A and 5-HT2C/D2 affinity ratios); conditions: Table 2; sum of affinity ratios from data of Table 1
# 5-HT1A receptor [9] = molecular target: 5-HT1A receptor (Homo sapiens, UniProt P08908); conditions: cited from earlier work
# D1 dopamine receptor [10] = molecular target: D1 dopamine receptor (Rattus norvegicus, UniProt P18901); conditions: cited from earlier work
# D4 dopamine receptor [11] = molecular target: T4, D4 dopamine receptor (Rattus norvegicus, UniProt P30729); conditions: cited from earlier work
# T4 sequence (P30729 1-387): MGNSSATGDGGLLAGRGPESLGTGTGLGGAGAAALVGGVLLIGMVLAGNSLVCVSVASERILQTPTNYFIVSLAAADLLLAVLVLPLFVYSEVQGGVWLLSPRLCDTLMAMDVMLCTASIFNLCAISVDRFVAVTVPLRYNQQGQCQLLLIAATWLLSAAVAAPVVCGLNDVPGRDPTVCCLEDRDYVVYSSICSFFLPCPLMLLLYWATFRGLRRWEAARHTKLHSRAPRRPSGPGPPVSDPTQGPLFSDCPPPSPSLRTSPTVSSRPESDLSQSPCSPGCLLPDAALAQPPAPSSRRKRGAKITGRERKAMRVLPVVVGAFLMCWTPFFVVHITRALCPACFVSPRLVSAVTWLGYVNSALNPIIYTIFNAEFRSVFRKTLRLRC
# [12] = molecular target: M3 muscarinic acetylcholine receptor (Homo sapiens, UniProt P20309); conditions: expressed as KD; cited from earlier work
# [13] = molecular target: T5, M4 muscarinic acetylcholine receptor (Homo sapiens, UniProt P08173); conditions: expressed as KD; cited from earlier work
# T5 sequence (P08173 1-479): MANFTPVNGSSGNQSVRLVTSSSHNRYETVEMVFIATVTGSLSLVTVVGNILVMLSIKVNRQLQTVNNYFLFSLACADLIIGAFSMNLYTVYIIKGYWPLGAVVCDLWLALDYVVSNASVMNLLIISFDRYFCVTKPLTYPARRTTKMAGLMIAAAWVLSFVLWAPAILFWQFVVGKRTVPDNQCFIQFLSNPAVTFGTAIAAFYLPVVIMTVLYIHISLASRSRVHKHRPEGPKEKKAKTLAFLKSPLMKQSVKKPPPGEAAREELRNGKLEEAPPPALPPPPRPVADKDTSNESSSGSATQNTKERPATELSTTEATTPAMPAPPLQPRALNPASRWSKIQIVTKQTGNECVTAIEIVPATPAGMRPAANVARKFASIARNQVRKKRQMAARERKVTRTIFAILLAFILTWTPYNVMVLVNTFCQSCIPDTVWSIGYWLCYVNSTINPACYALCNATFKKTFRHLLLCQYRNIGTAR
# [14] = molecular target: T6, M5 muscarinic acetylcholine receptor (Homo sapiens, UniProt P08912); conditions: expressed as KD; cited from earlier work
# T6 sequence (P08912 1-532): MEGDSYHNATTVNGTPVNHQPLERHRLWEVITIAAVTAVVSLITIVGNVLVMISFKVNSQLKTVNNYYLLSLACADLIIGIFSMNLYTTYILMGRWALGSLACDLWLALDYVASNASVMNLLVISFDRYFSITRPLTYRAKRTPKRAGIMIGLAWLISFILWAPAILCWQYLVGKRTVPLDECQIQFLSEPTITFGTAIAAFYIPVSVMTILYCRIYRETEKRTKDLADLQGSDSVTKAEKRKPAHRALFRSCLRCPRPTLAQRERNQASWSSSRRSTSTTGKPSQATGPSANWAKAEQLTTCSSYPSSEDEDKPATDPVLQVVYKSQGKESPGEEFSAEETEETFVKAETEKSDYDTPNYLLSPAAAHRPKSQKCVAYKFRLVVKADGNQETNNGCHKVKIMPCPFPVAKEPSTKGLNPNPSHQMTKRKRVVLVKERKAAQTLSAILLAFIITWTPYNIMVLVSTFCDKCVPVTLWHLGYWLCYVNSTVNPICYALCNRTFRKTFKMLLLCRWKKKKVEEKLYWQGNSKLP
# [15] = molecular target: M1 muscarinic acetylcholine receptor (Homo sapiens, UniProt P11229); conditions: expressed as KD; cited from earlier work
# 5-HT2A/D2 = 5-HT2A/D2 receptor affinity ratio; format: binding, human; conditions: Table 2; affinity ratio from data of Table 1
# 5-HT2C/5-HT2A = 5-HT2C/5-HT2A receptor affinity ratio; format: binding, human; conditions: Table 2; affinity ratio from data of Table 1
# 5-HT2C/D2 = 5-HT2C/D2 receptor affinity ratio; format: binding, human; conditions: Table 2; affinity ratio from data of Table 1
# 5-HT6 receptor = 5-HT6 receptor (Rattus norvegicus, UniProt P31388); conditions: cited from earlier work
# 5-HT7 receptor [16] = molecular target: 5-HT7 receptor (Rattus norvegicus, UniProt P32305); conditions: cited from earlier work
# [17] = molecular target: M2 muscarinic acetylcholine receptor (Homo sapiens, UniProt P08172); conditions: expressed as KD; cited from earlier work
# D1 dopamine receptor [18] = molecular target: D1 dopamine receptor (Homo sapiens, UniProt P21728); conditions: cited from earlier work
# [19] = molecular target: mACh, muscarinic acetylcholine receptor; conditions: human, expressed as KD; cited from earlier work
# α1-adrenoceptor [20] = conditions: human, expressed as KD; cited from earlier work
# α2-adrenoceptor [21] = conditions: human, expressed as KD; cited from earlier work
# 5-HT1A receptor [22] = molecular target: T7, 5-HT1A receptor (Rattus norvegicus, UniProt P19327); conditions: cited from earlier work
# T7 sequence (P19327 1-422): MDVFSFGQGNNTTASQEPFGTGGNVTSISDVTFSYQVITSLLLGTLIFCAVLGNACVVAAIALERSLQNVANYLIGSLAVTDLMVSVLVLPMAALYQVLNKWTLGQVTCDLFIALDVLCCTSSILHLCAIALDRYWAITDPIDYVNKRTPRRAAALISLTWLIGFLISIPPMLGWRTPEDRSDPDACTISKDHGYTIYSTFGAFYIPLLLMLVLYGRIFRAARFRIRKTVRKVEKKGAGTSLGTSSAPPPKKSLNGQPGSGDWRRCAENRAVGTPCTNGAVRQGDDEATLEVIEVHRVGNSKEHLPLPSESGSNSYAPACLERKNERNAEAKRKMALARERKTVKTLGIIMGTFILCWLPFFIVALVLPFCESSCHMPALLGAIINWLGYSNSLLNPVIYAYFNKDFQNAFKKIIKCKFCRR
# 5-HT7 receptor (Rattus norvegicus, UniProt P32305), sequence (P32305 whole entry): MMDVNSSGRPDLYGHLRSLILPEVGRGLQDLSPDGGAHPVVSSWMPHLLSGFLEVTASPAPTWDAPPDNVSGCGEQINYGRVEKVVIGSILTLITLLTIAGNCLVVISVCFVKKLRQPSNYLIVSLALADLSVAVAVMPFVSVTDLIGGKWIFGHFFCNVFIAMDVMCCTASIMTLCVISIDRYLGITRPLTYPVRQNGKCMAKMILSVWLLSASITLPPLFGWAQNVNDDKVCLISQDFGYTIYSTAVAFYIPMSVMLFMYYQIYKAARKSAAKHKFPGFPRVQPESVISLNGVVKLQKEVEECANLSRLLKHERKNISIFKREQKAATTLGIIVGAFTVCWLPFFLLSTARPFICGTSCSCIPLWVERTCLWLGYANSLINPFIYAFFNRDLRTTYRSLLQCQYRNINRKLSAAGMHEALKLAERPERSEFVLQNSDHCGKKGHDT
# M3 muscarinic acetylcholine receptor, sequence (P20309 whole entry): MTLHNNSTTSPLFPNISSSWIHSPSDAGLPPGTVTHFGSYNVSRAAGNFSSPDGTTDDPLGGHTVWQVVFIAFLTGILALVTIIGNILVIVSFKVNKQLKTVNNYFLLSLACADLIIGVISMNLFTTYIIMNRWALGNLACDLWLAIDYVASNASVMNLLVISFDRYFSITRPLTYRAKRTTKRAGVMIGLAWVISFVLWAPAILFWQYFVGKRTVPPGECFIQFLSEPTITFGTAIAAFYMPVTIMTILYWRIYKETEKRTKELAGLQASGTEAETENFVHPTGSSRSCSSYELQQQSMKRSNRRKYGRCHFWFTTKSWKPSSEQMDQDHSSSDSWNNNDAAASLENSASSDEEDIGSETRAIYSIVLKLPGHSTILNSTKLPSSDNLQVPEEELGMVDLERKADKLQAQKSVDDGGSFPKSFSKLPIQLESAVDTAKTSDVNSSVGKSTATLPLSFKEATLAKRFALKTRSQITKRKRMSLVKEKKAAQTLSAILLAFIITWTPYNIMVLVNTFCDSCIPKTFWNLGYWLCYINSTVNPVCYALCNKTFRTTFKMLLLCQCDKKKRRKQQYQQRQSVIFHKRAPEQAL
# 5-HT6 receptor, sequence (P31388 whole entry): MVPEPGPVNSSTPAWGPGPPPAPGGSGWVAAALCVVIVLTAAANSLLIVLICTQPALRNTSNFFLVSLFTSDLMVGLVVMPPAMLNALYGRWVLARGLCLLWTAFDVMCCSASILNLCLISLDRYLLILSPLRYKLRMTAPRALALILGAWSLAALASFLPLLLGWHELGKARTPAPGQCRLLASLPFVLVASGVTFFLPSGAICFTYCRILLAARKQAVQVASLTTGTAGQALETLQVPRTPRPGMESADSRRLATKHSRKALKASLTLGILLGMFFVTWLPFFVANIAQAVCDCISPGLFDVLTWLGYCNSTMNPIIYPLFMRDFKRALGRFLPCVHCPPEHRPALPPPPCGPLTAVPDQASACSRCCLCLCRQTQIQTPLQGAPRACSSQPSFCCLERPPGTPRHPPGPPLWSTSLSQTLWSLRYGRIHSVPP
# M1 muscarinic acetylcholine receptor, sequence (P11229 whole entry): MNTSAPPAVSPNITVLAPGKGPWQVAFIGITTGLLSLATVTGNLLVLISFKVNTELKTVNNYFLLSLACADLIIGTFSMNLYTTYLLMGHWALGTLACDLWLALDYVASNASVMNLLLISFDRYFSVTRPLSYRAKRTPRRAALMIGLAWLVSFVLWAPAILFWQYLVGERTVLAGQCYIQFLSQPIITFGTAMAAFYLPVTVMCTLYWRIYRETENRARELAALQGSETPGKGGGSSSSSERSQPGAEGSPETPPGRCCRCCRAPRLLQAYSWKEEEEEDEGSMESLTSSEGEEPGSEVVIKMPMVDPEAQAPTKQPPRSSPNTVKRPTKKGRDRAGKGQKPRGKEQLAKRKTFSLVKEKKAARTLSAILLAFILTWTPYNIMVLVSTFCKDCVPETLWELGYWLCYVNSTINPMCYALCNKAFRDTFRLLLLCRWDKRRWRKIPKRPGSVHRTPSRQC
# M2 muscarinic acetylcholine receptor, sequence (P08172 whole entry): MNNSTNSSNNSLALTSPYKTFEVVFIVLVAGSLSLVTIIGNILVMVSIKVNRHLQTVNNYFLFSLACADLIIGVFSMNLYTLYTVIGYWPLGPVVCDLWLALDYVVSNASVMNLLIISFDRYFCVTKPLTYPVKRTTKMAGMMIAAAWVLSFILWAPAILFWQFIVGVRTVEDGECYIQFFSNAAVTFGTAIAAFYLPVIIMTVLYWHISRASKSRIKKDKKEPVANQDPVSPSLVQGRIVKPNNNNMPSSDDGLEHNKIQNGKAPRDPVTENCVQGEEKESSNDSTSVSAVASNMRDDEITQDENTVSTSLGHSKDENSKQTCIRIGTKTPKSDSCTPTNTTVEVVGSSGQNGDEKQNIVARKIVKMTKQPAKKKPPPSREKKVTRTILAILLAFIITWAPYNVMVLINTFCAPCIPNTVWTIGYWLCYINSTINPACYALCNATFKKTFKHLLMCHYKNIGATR
# D1 dopamine receptor (Rattus norvegicus, UniProt P18901), sequence (P18901 whole entry): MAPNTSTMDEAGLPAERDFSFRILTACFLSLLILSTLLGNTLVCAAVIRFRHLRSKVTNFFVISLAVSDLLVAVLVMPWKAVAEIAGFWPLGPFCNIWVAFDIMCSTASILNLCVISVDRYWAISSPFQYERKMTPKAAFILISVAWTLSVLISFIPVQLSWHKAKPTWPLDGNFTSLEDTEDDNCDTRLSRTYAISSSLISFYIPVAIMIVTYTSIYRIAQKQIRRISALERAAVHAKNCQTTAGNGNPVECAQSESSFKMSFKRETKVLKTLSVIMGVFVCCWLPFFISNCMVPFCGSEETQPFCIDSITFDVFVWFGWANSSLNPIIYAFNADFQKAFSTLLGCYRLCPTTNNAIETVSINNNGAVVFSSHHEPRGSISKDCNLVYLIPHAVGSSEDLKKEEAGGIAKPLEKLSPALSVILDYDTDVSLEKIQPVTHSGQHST
# H1 histamine receptor, sequence (P31389 whole entry): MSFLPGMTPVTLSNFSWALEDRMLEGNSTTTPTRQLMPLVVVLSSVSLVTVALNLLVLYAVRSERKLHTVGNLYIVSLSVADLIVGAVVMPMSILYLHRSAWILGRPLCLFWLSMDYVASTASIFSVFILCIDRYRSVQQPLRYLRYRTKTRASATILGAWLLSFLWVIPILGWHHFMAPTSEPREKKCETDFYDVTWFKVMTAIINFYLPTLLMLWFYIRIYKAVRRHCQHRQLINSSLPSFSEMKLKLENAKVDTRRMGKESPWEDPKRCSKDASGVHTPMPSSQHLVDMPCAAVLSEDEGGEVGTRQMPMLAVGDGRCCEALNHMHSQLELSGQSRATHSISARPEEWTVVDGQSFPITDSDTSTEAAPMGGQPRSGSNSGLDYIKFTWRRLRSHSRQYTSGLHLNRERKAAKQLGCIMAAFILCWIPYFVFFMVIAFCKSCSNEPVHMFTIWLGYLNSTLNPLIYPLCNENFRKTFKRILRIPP
# D2-S (short form of D2 receptor), sequence (P14416 1-414 isoform P14416-2): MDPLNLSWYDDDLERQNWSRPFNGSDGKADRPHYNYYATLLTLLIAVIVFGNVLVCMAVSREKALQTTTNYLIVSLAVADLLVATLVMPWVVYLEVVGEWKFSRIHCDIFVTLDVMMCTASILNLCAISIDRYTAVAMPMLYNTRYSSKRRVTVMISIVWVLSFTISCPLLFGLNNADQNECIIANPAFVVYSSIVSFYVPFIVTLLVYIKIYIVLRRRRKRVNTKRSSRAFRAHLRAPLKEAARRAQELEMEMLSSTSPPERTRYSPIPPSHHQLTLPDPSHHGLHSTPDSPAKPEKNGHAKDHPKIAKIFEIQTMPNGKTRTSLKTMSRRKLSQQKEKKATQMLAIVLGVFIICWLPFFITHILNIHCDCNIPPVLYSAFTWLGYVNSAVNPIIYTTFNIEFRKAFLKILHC
# 5-HT1A receptor (Homo sapiens, UniProt P08908), sequence (P08908 whole entry): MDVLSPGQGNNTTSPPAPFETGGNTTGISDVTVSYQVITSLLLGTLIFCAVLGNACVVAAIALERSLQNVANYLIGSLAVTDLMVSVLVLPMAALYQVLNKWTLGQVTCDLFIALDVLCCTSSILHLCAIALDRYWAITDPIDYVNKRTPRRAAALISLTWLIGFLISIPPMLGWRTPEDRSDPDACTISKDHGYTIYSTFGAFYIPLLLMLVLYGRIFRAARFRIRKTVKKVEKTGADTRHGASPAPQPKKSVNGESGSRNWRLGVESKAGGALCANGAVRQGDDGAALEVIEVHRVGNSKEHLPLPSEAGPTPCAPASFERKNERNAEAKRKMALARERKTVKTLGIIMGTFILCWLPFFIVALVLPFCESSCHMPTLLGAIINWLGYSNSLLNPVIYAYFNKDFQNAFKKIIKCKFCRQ
# 5-HT7 receptor (Mus musculus, UniProt P32304), sequence (P32304 whole entry): as the sequence (P32305 whole entry) above, with G27R, P39S, L53P, P279S, S438C counted along it
# D1 dopamine receptor (Homo sapiens, UniProt P21728), sequence (P21728 whole entry): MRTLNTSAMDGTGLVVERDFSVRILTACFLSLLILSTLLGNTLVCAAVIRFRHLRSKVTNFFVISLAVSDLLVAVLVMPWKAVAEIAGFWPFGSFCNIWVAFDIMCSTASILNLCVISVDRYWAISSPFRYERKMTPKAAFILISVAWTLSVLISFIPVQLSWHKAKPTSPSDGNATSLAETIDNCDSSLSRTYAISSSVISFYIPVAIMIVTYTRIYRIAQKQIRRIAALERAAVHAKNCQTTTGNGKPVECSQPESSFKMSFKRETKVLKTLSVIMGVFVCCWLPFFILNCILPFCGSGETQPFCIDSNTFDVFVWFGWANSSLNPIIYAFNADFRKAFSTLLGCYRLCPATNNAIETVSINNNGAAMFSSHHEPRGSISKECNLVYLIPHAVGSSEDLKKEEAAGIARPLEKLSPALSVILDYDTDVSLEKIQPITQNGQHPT
(2C/2A) + (2C/D2) [8],SMILES,5-HT2C affinity value (−logKi) (5-HT2C receptor),D4 affinity value (−logKi) (D4 dopamine receptor [4]),mACh affinity value (−logKi) [5],α1 affinity value (−logKi) (α1-adrenoceptor [6]),"sigma affinity value (−logKi) (sigma, σ receptor)",H1 affinity value (−logKi) (H1 histamine receptor),D1 affinity value (−logKi) (D1 dopamine receptor [10]),D4 affinity value (−logKi) (D4 dopamine receptor [11]),M3 affinity value (−log KD) [12],M4 affinity value (−log KD) [13],M5 affinity value (−log KD) [14],M1 affinity value (−log KD) [15],5-HT6 affinity value (−logKi) (5-HT6 receptor),5-HT7 affinity value (−logKi) (5-HT7 receptor [16]),M2 affinity value (−log KD) [17],further results
1.83,NC(=O)C1(N2CCCCC2)CCN(CCCC(=O)c2ccc(F)cc2)CC1 [Pipamperone],6.9^6,8.3^6,<5.3^6,7.2^6,7.3^6,<5.3^6,–,–,–,–,–,–,–,–,–,5-HT3 affinity value (−logKi) (5-HT3 receptor): <5.3^6; 5-HT7 affinity value (−logKi) (5-HT7 receptor [1]): 6.8^6; D2-S affinity value (−logKi) [2]: 7.0^6; D2-L affinity value (−logKi) [3]: 6.9^6; α2 affinity value (−logKi) (α2-adrenoceptor [7]): 6.2^6
–,CN1CCN(C2=Nc3ccccc3Oc3ccc(Cl)cc32)CC1 [Loxapine],–,–,–,–,–,–,7.5^18,7.9^4,6.4^15,6.5^15,6.6^15,7.2^15,–,–,–,5-HT1A affinity value (−logKi) (5-HT1A receptor [9]): 5.5^5
2.13,CN1CCN(C2=Nc3cc(F)ccc3Cc3ccccc32)CC1 [Fluperlapine],–,–,–,–,–,–,6.8^8,6.9^4,7.4^15,7.9^15,7.7^15,8.1^15,7.8^2,8.3^2,7.1^15,5-HT2A/D2 (5-HT2A/D2): 1.25; 5-HT2C/5-HT2A (2C/2A) (5-HT2C/5-HT2A): 0.95; 5-HT2C/D2 (2C/D2) (5-HT2C/D2): 1.18
1.43,CN1CCN(CC/C=C2/c3ccccc3Sc3ccc(S(=O)(=O)N(C)C)cc32)CC1 [Thiothixene],–,–,–,–,–,–,–,7.1^4,5.8^15,5.8^15,5.4^15,–,7.4^2,7.9^2,5.7^15,D1 affinity value (−logKi) (D1 dopamine receptor [18]): 6.5^9; mACh affinity value (−log KD) [19]: 5.5^16; α1 affinity value (−log KD) (α1-adrenoceptor [20]): 8.0^16; α2 affinity value (−log KD) (α2-adrenoceptor [21]): 6.7^16

SMILES,(2C/2A) + (2C/D2) [8],5-HT2C affinity value (−logKi) (5-HT2C receptor),D4 affinity value (−logKi) (D4 dopamine receptor [4]),mACh affinity value (−logKi) [5],α1 affinity value (−logKi) (α1-adrenoceptor [6]),"sigma affinity value (−logKi) (sigma, σ receptor)",H1 affinity value (−logKi) (H1 histamine receptor),D1 affinity value (−logKi) (D1 dopamine receptor [10]),D4 affinity value (−logKi) (D4 dopamine receptor [11]),M3 affinity value (−log KD) [12],M4 affinity value (−log KD) [13],M5 affinity value (−log KD) [14],M1 affinity value (−log KD) [15],5-HT6 affinity value (−logKi) (5-HT6 receptor),5-HT7 affinity value (−logKi) (5-HT7 receptor [16]),M2 affinity value (−log KD) [17],further results
CN(C)CCOC1=Cc2ccccc2Sc2ccc(Cl)cc21 [Zotepine],2.02,8.5^6,7.4^6,6.3^6,8.5^6,6.3^6,8.5^6,–,8.2^4,–,7.1^15,6.6^15,–,9.0^2,8.8^2,–,5-HT1A affinity value (−logKi) (5-HT1A receptor [22]): 6.5^6
